Source: ChEMBL document CHEMBL3045110, “Synthesis and antibacterial evaluation of 6-azapyrimidines with -methylene--(4-substituted phenyl)--butyrolactone pharmacophores” (2011)
≈ marks a conversion by molar mass, not a printed value.

Key:
Format in all cases: functional
[1] = tested on: Staphylococcus aureus; test: Antibacterial activity against Staphylococcus aureus ATCC 25923 after 20 to 22 hr by agar dilution method
[2] = tested on: Bacillus cereus; test: Antibacterial activity against Bacillus cereus ATCC 11778 after 20 to 22 hr by agar dilution method
[3] = tested on: Proteus vulgaris; test: Antibacterial activity against Proteus vulgaris ATCC 13315 after 20 to 22 hr by agar dilution method
[4] = tested on: Micrococcus; test: Antibacterial activity against Micrococcus […] ATCC 9341 after 20 to 22 hr by agar dilution method
[5] = tested on: Bordetella bronchiseptica; test: Antibacterial activity against Bordetella bronchiseptica ATCC 4617 after 20 to 22 hr by agar dilution method
[6] = tested on: Bacillus subtilis; test: Antibacterial activity against Bacillus subtilis ATCC 6633 after 20 to 22 hr by agar dilution method
[7] = tested on: Staphylococcus epidermidis; test: Antibacterial activity against Staphylococcus epidermidis ATCC 12228 after 20 to 22 hr by agar dilution method

SMILES	MIC [1]	MIC [2]	MIC [3]	MIC [4]	MIC [5]	MIC [6]	MIC [7]
C=C1CC(Cn2nc(C)c(=O)[nH]c2=O)(c2ccc(-c3ccccc3)cc2)OC1=O (stereo unspecified)	> 100 µg/mL	> 100 µg/mL	> 100 µg/mL	> 100 µg/mL	50 µg/mL (≈ 128 µM)	25 µg/mL (≈ 64.2 µM)	25 µg/mL (≈ 64.2 µM)
C=C1CC(Cn2nc(C)c(=O)n(CC3(c4ccccc4)CC(=C)C(=O)O3)c2=O)(c2ccccc2)OC1=O (stereo unspecified)	> 100 µg/mL	> 100 µg/mL	> 100 µg/mL	> 100 µg/mL	> 100 µg/mL	> 100 µg/mL	> 100 µg/mL
C=C1CC(Cn2ncc(=O)n(CC3(c4ccccc4)CC(=C)C(=O)O3)c2=O)(c2ccccc2)OC1=O (stereo unspecified)	> 100 µg/mL	> 100 µg/mL	> 100 µg/mL	> 100 µg/mL	> 100 µg/mL	> 100 µg/mL	> 100 µg/mL
C=C1CC(Cn2nc(C)c(=O)[nH]c2=O)(c2ccc(F)cc2)OC1=O (stereo unspecified)	> 100 µg/mL	50 µg/mL (≈ 151 µM)	> 100 µg/mL	> 100 µg/mL	> 100 µg/mL	> 100 µg/mL	> 100 µg/mL
C=C1CC(Cn2ncc(=O)[nH]c2=O)(c2ccc(-c3ccccc3)cc2)OC1=O (stereo unspecified)	> 100 µg/mL	50 µg/mL (≈ 133 µM)	25 µg/mL (≈ 66.6 µM)	> 100 µg/mL	> 100 µg/mL	> 100 µg/mL	> 100 µg/mL
C=C1CC(Cn2ncc(=O)[nH]c2=O)(c2ccc(F)cc2)OC1=O (stereo unspecified)	> 100 µg/mL	50 µg/mL (≈ 158 µM)	50 µg/mL (≈ 158 µM)	> 100 µg/mL	> 100 µg/mL	> 100 µg/mL	> 100 µg/mL
C=C1CC(Cn2nc(C)c(=O)n(CC3(c4ccc(F)cc4)CC(=C)C(=O)O3)c2=O)(c2ccc(F)cc2)OC1=O (stereo unspecified)	> 100 µg/mL	25 µg/mL (≈ 46.7 µM)	> 100 µg/mL	25 µg/mL (≈ 46.7 µM)	> 100 µg/mL	> 100 µg/mL	> 100 µg/mL
C=C1CC(Cn2nc(C)c(=O)[nH]c2=O)(c2ccccc2)OC1=O (stereo unspecified)	> 100 µg/mL	> 100 µg/mL	> 100 µg/mL	> 100 µg/mL	> 100 µg/mL	> 100 µg/mL	> 100 µg/mL
O=c1cn[nH]c(=O)[nH]1 [6-AZAURACIL]	> 100 µg/mL	> 100 µg/mL	> 100 µg/mL	> 100 µg/mL	> 100 µg/mL	> 100 µg/mL	> 100 µg/mL
C=C1CC(Cn2ncc(=O)[nH]c2=O)(c2ccccc2)OC1=O (stereo unspecified)	> 100 µg/mL	> 100 µg/mL	5 µg/mL (≈ 16.7 µM)	> 100 µg/mL	> 100 µg/mL	> 100 µg/mL	> 100 µg/mL
C=C1CC(Cn2ncc(=O)n(CC3(c4ccc(F)cc4)CC(=C)C(=O)O3)c2=O)(c2ccc(F)cc2)OC1=O (stereo unspecified)	> 100 µg/mL	10 µg/mL (≈ 19.2 µM)	> 100 µg/mL	> 100 µg/mL	> 100 µg/mL	> 100 µg/mL	> 100 µg/mL
C=C1CC(Cn2nc(C)c(=O)n(CC3(c4ccc(-c5ccccc5)cc4)CC(=C)C(=O)O3)c2=O)(c2ccc(-c3ccccc3)cc2)OC1=O (stereo unspecified)	> 100 µg/mL	25 µg/mL (≈ 38.4 µM)	> 100 µg/mL	> 100 µg/mL	> 100 µg/mL	> 100 µg/mL	> 100 µg/mL
C=C1CC(Cn2ncc(=O)n(CC3(c4ccc(-c5ccccc5)cc4)CC(=C)C(=O)O3)c2=O)(c2ccc(-c3ccccc3)cc2)OC1=O (stereo unspecified)	50 µg/mL (≈ 78.4 µM)	25 µg/mL (≈ 39.2 µM)	25 µg/mL (≈ 39.2 µM)	50 µg/mL (≈ 78.4 µM)	25 µg/mL (≈ 39.2 µM)	10 µg/mL (≈ 15.7 µM)	10 µg/mL (≈ 15.7 µM)
